One assay concerns male Wistar rats. Put plainly: Experiment 11: protective effect on diastolic dysfunction of the myocardium (compound given before norepinephrine). In kind it is in vivo, rat. How it is done:
This experiment was performed to examine the protective effect of the compound on left ventricular diastolic dysfunction, and the compound was administered 5 minutes before administration of the norepinephrine solution referred to in Experiment 1, in which a calcium solution and a norepinephrine solution were administered after calcium administration for 20 minutes.
In this experiment, the 1,4-benzothiazepine derivative or pharmaceutically acceptable salt thereof was used as the compound.
Eight-week old male Wistar rats weighing 310-320 g were used in the study. The rats were anesthetized with 1,000 mg/kg of urethane and 80 mg/kg of α-chloralose by subperitoneal injection under artificial respiration (SN-480-7, Shinano) using endotracheal intubation. In this experiment, 100 mg of the compound was dissolved in 1 ml of dimethylsulfoxide (DMSO) and the resulting DMSO solution of the compound was stored at 4° C. Norepinephrine solution was prepared by dissolving 1 mg of norepinephrine in 41 μl of distilled water, at an infusion speed of […].
Firstly, continuous infusion catheters of calcium chloride solution or norepinephrine solution containing calcium chloride were inserted into the right external jugular veins of the rats, microchip catheters (SPC-320, Millar) was inserted into the left ventricles via the right common arteries, and the left ventricular end-diastolic pressure was measured. In addition, test drug infusion catheters were inserted into the right femoral veins.
A 1-lead electrocardiogram and the left ventricular pressure were recorded simultaneously on a personal computer via an A/D converter. The left ventricular diastolic pressure was determined as the mean of data measured over 20 heart beats every 5 minutes, when the pressure equivalent to the R wave of the electrocardiogram was defined as the left ventricular diastolic pressure. In the preparation step, blood pressure, pulse, and electrocardiogram of the rats were monitored for 15 minutes and allowed to stabilize, and then 5% dextrose solution containing calcium chloride (at a concentration based on the weight of the rat) was infused into the right external jugular vein for 20 minutes at 16.6 μl/min (12.0 mg/kg/min of calcium chloride).
Secondly, a norepinephrine solution containing calcium chloride without a change in dosage was immediately injected at a rate of 30 μg/kg/min via the right external jugular vein. After the start of administration, calcium chloride and norepinephrine were then continuously injected in the form of a norepinephrine solution containing calcium chloride. With continuous injection of calcium chloride and norepinephrine (in the form of a norepinephrine solution containing calcium chloride) via the right external jugular vein, 0.2 ml of 1% DMSO solution of the solvent used for the test compound was administered over 30 seconds to a rat (weight: 310 g, Control; this animal was not administered the compound) via the right femoral vein, 5 minutes before commencement of injection (intravenous injection) of calcium chloride and norepinephrine (in the form of a norepinephrine solution containing calcium chloride) via the right external jugular vein.
Similarly to the Control, with continuous injection of calcium chloride and norepinephrine (in the form of a norepinephrine solution containing calcium chloride) via the right external jugular vein, 0.2 ml of a 1% DMSO solution containing 0.3 mg/kg of the compound was administered over 30 seconds to a rat (weight: 320 g, defined as Test 14) via the right femoral vein, 5 minutes before commencement of injection (intravenous injection) via the right external jugular vein of calcium chloride and norepinephrine. Furthermore, in this experiment, after the test drug was injected over 30 seconds, a 1:10 dilution of the injected test drug was additionally administered at 10 μl/min from commencement of test drug injection to 15 minutes after the start of administration. […]

For the next assay, the system named is white rabbits. Put plainly: Experiment 10: effect of the compound on cardiac rate and PQ interval on the electrocardiogram. In kind it is in vivo, rabbit. Particulars: for Cardiac rate: listed as the test compound; for Cardiac rate relative to before administration (100%) / PQ interval relative to before administration (100%): before administration (defined as 100%). How it is done: In this experiment, the 1-hydrochloride of the compound, 4-[3-(4-benzylpiperidin-1-yl)propionyl]-7-methoxy-2,3,4,5-tetrahydro-1,4-benzothiazepine 1-hydrochloride (hereinafter called the compound) was used as the 1,4-benzothiazepine derivative or pharmaceutically acceptable salt thereof.
Five white rabbits (weight: 2.7-2.9 kg) were used in this experiment: a rabbit (weight 2.8 kg, Control 1) that was administered control solution, a rabbit (weight 2.7 kg, Test 10) that received the compound at 0.04 mg/kg/min, a rabbit (weight 2.7 kg, Test 11) that received the compound at 0.04 mg/kg/min, a rabbit (weight 2.9 kg, Test 12) that received the compound at 0.4 mg/kg/min, and a rabbit (weight 2.8 kg, Test 13) that received the compound at 0.4 mg/kg/min.
Each rabbit was anesthetized with a single intravenous injection of 20 mg/kg methohexital sodium under artificial respiration (Type AR1 Narishige Group) using endotracheal intubation. Subsequently, α-chloralose was injected into the ear veins at 90 mg/kg/20 min. A DMSO solution of the compound was prepared by dissolving 100 mg of the compound in 1 ml of dimethylsulfoxide (DMSO), and stored at 4° C.
In this experiment, injection catheters for administration of the compound and other drugs were inserted into the right external jugular veins of the rabbits, and microchip catheters (SPC-320, Millar) for blood pressure measurement were inserted via the right common arteries. A 2-lead electrocardiogram was examined, and blood pressure, cardiac rate, and electrocardiogram of the rabbits were monitored for 10 minutes. When the data stabilized, the electrocardiogram, systolic pressure and diastolic pressure of each rabbit were recorded on a personal computer via an A/D converter. The Control rabbit was administered 5% dextrose solution containing 0.1% DMSO as a control solution for 10 minutes at 0.1 ml/min. Test 10 and 11 rabbits were administered 5% dextrose containing the compound at 0.1 ml/min, and then the compound at an infusion rate of 0.04 mg/kg/min. Test 12 and 13 were administered 5% dextrose containing the compound at 0.1 ml/min, and then the compound at an infusion rate of 0.4 mg/kg/min.
Cardiac rate and PQ interval in the Control and Test rabbits were measured before administration of the test solution, and 5 and 10 minutes after administration. The PQ interval, which is the time interval between the beginning of the P-wave and the beginning of next Q wave, reflects the conduction velocity of electrical stimulation from the atrium to the ventricle. The cardiac rates before administration of the test solution were defined as 100%, and data for the cardiac rate after administration of the compound are shown in Table 10.

Where [1] appears, read: infusion rate 0.04 mg/kg/min, after 5 minutes.
The mark [2] stands for this setting: infusion rate 0.04 mg/kg/min, after 10 minutes.
[3] abbreviates: infusion rate 0.04 mg/kg/min, before administration.
[4] abbreviates: infusion rate 0.4 mg/kg/min, after 5 minutes.
Setting [5] is: infusion rate 0.4 mg/kg/min, after 10 minutes.
[6] abbreviates: infusion rate 0.4 mg/kg/min, before administration.

The structures appear in SMILES notation. Values joined by “and” are separate entries in the source; they are usually repeats but may differ in a detail not shown here. Identical values can stand only once.

On to `COc1ccc2c(c1)CN(C(=O)CCN1CCC(Cc3ccccc3)CC1)CCS2` [the compound, 4-[3-(4-benzylpiperidine-1-yl)propionyl]-7-methoxy-2,3,4,5-tetrahydro-1,4-benzothiazepine], for which the “left ventricular end-diastolic pressure” value worked out at 7.2 mmHg in the assay with male Wistar rats (Test 14: 0.3 mg/kg i.v. over 30 s 5 min before norepinephrine, then 0.02 mg/kg/min, 25 minutes before (5 minutes before the start of CaCl2), baseline); 8.0 mmHg in the assay with male Wistar rats (Test 14: 0.3 mg/kg i.v. over 30 s then 0.02 mg/kg/min, 5 minutes after the start of test drug (just before the start of norepinephrine)); 14.5 mmHg with male Wistar rats (Test 14: 0.3 mg/kg i.v. over 30 s then 0.02 mg/kg/min, 10 minutes after the start of test drug (5 minutes after the start of norepinephrine 30 μg/kg/min)); 7.9 mmHg in the assay on male Wistar rats (Test 14: 0.3 mg/kg i.v. over 30 s then 0.02 mg/kg/min, 10 minutes before (10 minutes after the start of CaCl2), baseline); 18.3 mmHg in the assay on male Wistar rats (Test 14: 0.3 mg/kg i.v. over 30 s then 0.02 mg/kg/min, 15 minutes after the start of test drug (10 minutes after the start of norepinephrine 30 μg/kg/min)); 7.7 mmHg in the assay on male Wistar rats (Test 14: 0.3 mg/kg i.v. over 30 s then 0.02 mg/kg/min, 20 minutes before (just after the start of CaCl2), baseline). Also, in the assay on male Wistar rats (Test 14: 0.3 mg/kg i.v. over 30 s then 0.02 mg/kg/min, just before test drug (20 minutes after the start of CaCl2), baseline), the “left ventricular end-diastolic pressure” value is listed as 8.1 mmHg. The “Increase of PQ interval compared to before administration” value in the assay on white rabbits (0.4 mg/kg/min, 10 minutes after administration, Test 12 and Test 13 rabbits) is “approximately 50%”. The PQ interval in the assay with white rabbits (setting [1]) was 73 milliseconds and 66 milliseconds; with white rabbits (setting [2]), 74 milliseconds and 68 milliseconds; in the assay with white rabbits (setting [3]), 71 milliseconds and 64 milliseconds; in the assay with white rabbits (setting [4]), 92 milliseconds and 82 milliseconds; in the assay with white rabbits (setting [5]) it was 107 milliseconds and 103 milliseconds; in the assay with white rabbits (setting [6]), 69 milliseconds and 68 milliseconds. For the same compound, the Cardiac rate with white rabbits (setting [1]) is 289 min⁻¹ and 283 min⁻¹; with white rabbits (setting [2]) it was 286 min⁻¹ and 281 min⁻¹; in the assay with white rabbits (setting [3]), 297 min⁻¹ and 286 min⁻¹; in the assay with white rabbits (setting [4]), 350 min⁻¹ and 311 min⁻¹; in the assay on white rabbits (setting [5]), 157 min⁻¹ and 98 min⁻¹; with white rabbits (setting [6]) it was 372 min⁻¹ and 327 min⁻¹. The “Cardiac rate relative to before administration (100%)” value in the assay on white rabbits (infusion rate 0.04 mg/kg/min) and in the assay with white rabbits (infusion rate 0.4 mg/kg/min) was “(100%)” throughout. The “PQ interval relative to before administration (100%)” value in the assay on white rabbits (infusion rate 0.04 mg/kg/min) and in the assay with white rabbits (infusion rate 0.4 mg/kg/min) was “(100%)” each time.
